# In patent US7507716B2, “Method for treating pain with prolactin antagonists” (Board of Regents, The University of Texas System, priority 2005, dated 2009):
# Positions count from the first letter of the chain named. Names and notes keep the numbering of the source.
# T1: PRL-R (Rattus norvegicus, UniProt P05710)
# T1 construct: endogenous in cells; host or cells: primary rat trigeminal ganglion neurons
# T1 sequence (P05710 20-610): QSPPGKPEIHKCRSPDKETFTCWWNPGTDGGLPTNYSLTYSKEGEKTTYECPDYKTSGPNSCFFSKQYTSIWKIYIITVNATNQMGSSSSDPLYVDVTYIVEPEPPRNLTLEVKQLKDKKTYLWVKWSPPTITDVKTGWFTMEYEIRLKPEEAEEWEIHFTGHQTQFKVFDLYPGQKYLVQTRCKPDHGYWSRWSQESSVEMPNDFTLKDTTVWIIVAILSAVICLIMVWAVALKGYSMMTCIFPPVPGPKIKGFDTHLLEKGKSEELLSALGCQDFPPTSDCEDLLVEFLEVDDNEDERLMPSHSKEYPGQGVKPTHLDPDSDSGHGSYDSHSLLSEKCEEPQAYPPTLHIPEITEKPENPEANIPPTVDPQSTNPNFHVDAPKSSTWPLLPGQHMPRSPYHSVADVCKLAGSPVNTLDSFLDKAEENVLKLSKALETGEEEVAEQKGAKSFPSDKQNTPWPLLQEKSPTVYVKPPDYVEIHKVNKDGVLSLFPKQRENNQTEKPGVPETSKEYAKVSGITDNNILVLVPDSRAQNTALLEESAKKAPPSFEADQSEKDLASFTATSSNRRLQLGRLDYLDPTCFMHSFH
# B1: Δ 1-9-G129R-hPRL: full PRL-R antagonist, human PRL variant synthesized as described (Bernichtein et al., 2003; Goffin et al., 2005) (protein)
# chain: LPICPGGAARCQVTLRDLFDRAVVLSHYIHNLSSEMFSEFDKRYTHGRGFITKAINSCHTSSLATPEDKEQAQQMNQKDFLSLIVSILRSWNEPLYHLVTEVRGMQEAPEAILSKAVEIEEQTKRLLERMELIVSQVHPETKENEIYPVWSGLPSLQMADEESRLSAYYNLLHCLRRDSHKIDNYLKLLKCRIIHNNNC
# B2: G129R-PRL: human prolactin variant, partial or full PRL-R antagonist / partial agonist; sequence in FIG. 9B (SEQ ID NO: 48) (protein, listed as Homo sapiens)
# chain: B1 chain
# B3: rhPRL: recombinant human PRL (protein, UniProt P01236 29-227, looked up)
# Prolactin: B1 chain with R129G
# What was measured:
# [1] = Plasma estradiol levels after s.c. estradiol benzoate; format: in vivo, rat; conditions: OVX rats, mean±SEM
# TG neurons [2] = assay: PRL release from cultured TG neurons (RIA); format: cell-based, rat; conditions: 300 nM capsaicin or 25 mM KCl; for release of immunoreactive PRL: neurons from OVX rats cultured in the absence of E2; for PRL released from TG neurons: neurons of proestrous rats cultured with 50 nM E2, 15 min
# Experimental: PRL is known to be released from cells of the anterior pituitary (Zacur et al. 1976) and from extrapituitary sites (Ben-Jonathan et al., 2002; Zinger et al., 2003; Torner et al., 2004). To determine whether PRL protein is present in a releasable pool in TG sensory neurons, cultured TG neurons derived either from proestrous rats (cultured in the presence of 50 nM E2) or from OVX rats (cultured without E2) were exposed to 300 nM capsaicin or 25 mM KCl buffer. The results obtained from these experiments are depicted in FIG. 2D, which indicate that a substantial amount of PRL is released from TG neurons of proestrous rats cultured in the presence of E2 upon stimulation with either capsaicin (158±12% of vehicle) or KCL (154±16% of vehicle). […] Data are presented as mean % of basal release±SEM (n=6/group, *=p<0.05 and **=p<0.01; one-way ANOVA with Bonferroni's post hoc test).
# Rat trigeminal ganglia (TG) primary cultures: The TG from ovariectomized or intact female rats were quickly removed after decapitation and neuronal cultures were prepared as previously described (Fehrenbacher et al., 2005; Patwardhan et al., 2005). The trypsin treatment was omitted in TG cultures prepared for electrophysiological recording and Ca^2+ imaging. Cells were plated on 24 well Poly-D-Lysine coated plates (for iCGRP experiments), 6 well Poly-D-Lysine plates (for PRL release experiments), Poly-D-Lysine/laminin-coated coverslips (for single cell studies) or 10 cm plates (for phosphorylation experiments), respectively. The TG cultures were maintained at 37° C. and 5% CO2. […] The media were replaced at the end of 24 h and then 48 h later.
# PRL Release Experiments: These experiments were performed at day 5 with TG cultures from OVX or intact female rats using Krebs buffer (NaCl 135 mM, KCl 3.5 mM, MgCl2 1 mM, NaH2PO4 1 mM, CaCl2 2.5 mM, BSA 0.1%, dextrose 3.3 mM, ascorbic acid 0.1 mM, HEPES 10 mM, thiorphan 16 μM; pH 7.4). After two initial washes, a 15 min baseline sample was collected. Cells were then exposed to 300 nM capsaicin (Sigma) or 25 mM KCl and incubated at 37° C. for an additional 15 min followed by collection of the samples. The 1 ml collected samples were lyophilized and resuspended in 250 ul of water and immediately frozen in −80° C. Frozen samples were sent to Dr. A. F. Parlow (NHPP, Harbor-UCLA) to have levels of PRL determined by a well-validated radioimmunoassay (RIA) with sensitivity range from 1-100 ng/ml. Results are representative of 6 independent experiments.
# PRL-R [3] = molecular target: T1, PRL-R; assay: Calcium imaging, block of PRL potentiation by PRL-R antagonist; format: cell-based; conditions: for block of PRL potentiation of capsaicin-evoked Ca2+ influx: antagonist 800 nM co-treated with PRL 40 nM, capsaicin 30 nM
# Experimental: To determine whether PRL augmentation of capsaicin responses occurs through the PRL-R (i.e., whether PRL-signaling could account for the observed effects of PRL on nociceptors sensitization), Ca^2+ imaging experiments were performed on neurons in the presence of a molar excess of a full PRL-R antagonist (Δ 1-9-G129R-hPRL) (Bernichtein et al., 2003; Goffin et al., 2005). Cultured neurons were treated as described in the previous experiment. In addition, neurons were co-treated with PRL and the PRL-R antagonist 1-9-Δ-G 129R-hPRL (800 nM). […] Data are presented as mean % of vehicle±SEM (n=19-40, *=p<0.05; two-way ANOVA).
# Calcium Imaging: TG cells cultured on coverslips were loaded with the cell-permeable calcium sensitive dye FURA 2-AM (1 ug/ml) (Molecular Probes, Eugene, Oreg.) for 30 min at 37° C. in Standard External Solution (SES) of the following composition in mM: 140 NaCl, 5 KCl, 2 CaCl2, 1 MgCl2, 10 glucose and 10 HEPES, pH 7.4. Coverslips containing cells were placed in a chamber with constant infusion of SES. Images were captured by a Nikon Eclipse TE-2000 microscope fitted with a 20×/NA 0.75 Fluor objective. Fluorescence images were collected in 5 sec intervals throughout the experiment, analyzed, and the F340/F380 ratio calculated by the Methafluor Software (MethaMorph, Web Universal Imaging Corporation, Downingtown, Pa.). Capsaicin was delivered locally to the cells, whereas PRL was delivered into the bath solution. The magnitude of calcium influx was determined by subtracting the averaged baseline 30 sec prior to the capsaicin stimulus from the peak achieved by the capsaicin stimulation for each cell (ratiometric method, ΔF340/F380).
# PRL-R [4] = molecular target: T1, PRL-R; assay: Patch clamp Icap, G129R-PRL against PRL sensitization; format: cell-based
# Experimental: (§1) Patch Clamp Electrophysiology: All recordings were performed in whole-cell voltage-clamp (Vh=−60 mV) configuration. Recordings were acquired at 22-24° C. from the somata of neurons (15-45 pF) using an Axopatch200B amplifier and pCLAMP9.0 software (Axon Instruments, Union City, Calif.). Data were filtered at 0.5 kHz and sampled at 2 kHz. Borosilicate pipettes (Sutter, Novato, Calif.) were polished to resistances of 3-5 MΩ in pipette solution. Access resistance was compensated (40-80%) to 7-10 MΩ values when appropriate. Cell diameters were calculated using d=√[100*Cm/π], where d (μm) is cell diameter and Cm (pF) is membrane capacitance.
# Since it is possible that this effect is observed only in full PRL-R antagonists, it is of interest to determine the effectiveness of partial PRL-R antagonists in blocking PRL-mediated nociceptor sensitization. To this end, the ability of the partial PRL […] (G129R-PRL) to inhibit PRL-induced increase in sensitivity to capsaicin was assessed. FIG. 10 summarizes the effect of administering PRL, human G129R-PRL, or their combination, on Icap. G129R-PRL acts as either a partial or full antagonist, depending on the cellular context of the experimental system (Goffin, Bernichtein et al. 2003).
# TG neurons [5] = assay: Patch clamp, capsaicin-induced currents (Icap); format: cell-based, rat
# Experimental: Since application of PRL rapidly increases capsaicin-induced calcium accumulation and neuropeptide release, the role of PRL in modulating capsaicin-induced currents (Icap) was examined. TRPV1 desensitization of cultured TG neurons was induced through the repeated application of 100 nM capsaicin to the cultures (Vellani et al., 2001; Bonnington and McNaughton, 2003). The sub-maximal concentration of capsaicin used was effective in inducing desensitization and permitted the investigation PRL-evoked re-sensitization or further sensitization of TRPV1. […] Data are presented as mean±SEM of PRL-treated ΔIcap (3rd Icap-2^ndIcap) normalized to vehicle treated ΔIcap, (n=8-12/group, *=p<0.05 and **=p<0.01; two-way ANOVA). […] Acutely dissociated TG neurons from female rats were locally pretreated with vehicle or PRL (40 nM) for 60 sec, washed for 60 sec and subjected to a single capsaicin pulse (40 sec, 0.1 nM-5 μM). Data are shown as mean±SEM (n=12-20/group, *=p<0.05 and ***=p<0.001 vehicle vs. PRL; two-way ANOVA). FIGS. 5C and 5D depict representative traces of Icap recordings from intact (FIG. 5C) and OVX (FIG. 5D) female rat TG neurons. Concentration of applied CAP and PRL are indicated. The duration CAP and PRL treatment was 30 sec and 60 sec, respectively. The magnitude of the second capsaicin-evoked inward currents (Icap) peak was subtracted from the third Icap peak to calculate the difference (ΔIcap). Data were normalized to the vehicle treated ΔIcap.
# as §1
# Standard external solution (SES) had the composition as described above. […] Drugs were applied using a fast, computer controlled pressure-driven 8-channel system (ValveLink8; AutoMate Scientific, San Francisco, Calif.).
# FIG. 11B summarizes the effect of adding rhPRL on Icap of cultured TG neurons from male, female and OVX female rats. Number of recorded neurons and neurons in which effects were observed are indicated above the bars. The recordings were performed in whole-cell voltage clamp c(Vh=−60 mV) configuration. Solutions are SES and SIS.
molecule,measurement,setting,value
C[C@]12CC[C@@H]3c4ccc(OC(=O)c5ccccc5)cc4CC[C@H]3[C@@H]1CC[C@@H]2O [17-beta-estradiol 3-benzoate],plasma estradiol levels,[1]; 2 μg/kg s.c. daily for 10 days,1.89 ± 0.36 pg/mL
same,plasma estradiol levels,[1]; 20 μg/kg s.c. daily for 10 days,59 ± 17.1 pg/mL
same,plasma estradiol levels,[1]; 80 μg/kg s.c. daily for 10 days,110 ± 36.6 pg/mL
"[Cl-].[K+] [KCL, KCl]",release of immunoreactive PRL,TG neurons [2],no detectable release
same,PRL released from TG neurons,TG neurons [2],154±16 % of vehicle
COc1cc(CNC(=O)CCCC/C=C/C(C)C)ccc1O [capsaicin],release of immunoreactive PRL,TG neurons [2],no detectable release
same,PRL released from TG neurons,TG neurons [2],158±12 % of vehicle
B1,effect of antagonist on its own on capsaicin-evoked Ca2+ influx,"PRL-R [3]; 800 nM, without PRL",had no effect on its own
same,block of PRL potentiation of capsaicin-evoked Ca2+ influx,PRL-R [3],significantly blocked PRL potentiation of capsaicin-evoked Ca^2+ influx
same,block of PRL potentiation of capsaicin-evoked Ca2+ influx,PRL-R [3]; listed as 1-9-Δ-G129R-hPRL,significantly blocked
B2,effect on Icap in the absence of rPRL,PRL-R [4]; 3 of 3 examined neurons,displayed partial agonist effects
same,reduction of the PRL effect on Icap,"PRL-R [4]; G129R-PRL 16 nM co-applied with rPRL 4 nM, observed in 6 of 7 neurons",about 40%
B3,sensitization of capsaicin-evoked Icap,"TG neurons [5]; cultured TG neurons from male and female rats, capsaicin 100 nM (FIG. 11A)",is able to sensitize cultured neurons isolated from male and female TG neurons
same,concentration dependence of Icap increase,"TG neurons [5]; male and female TG neurons, varying rhPRL concentrations",dose-dependent increases in Icap
